The record followed here is ChEMBL document CHEMBL4261615, “Design, synthesis, biological evaluation and cellular imaging of imidazo[4,5-b]pyridine derivatives as potent and selective TAM inhibitors” (Bioorg Med Chem, 2018).

For assay [1], the target named is Tyrosine-protein kinase receptor UFO (Homo sapiens) (UniProt P30530). The experiment in a line: Inhibition of recombinant His-tagged human Axl (473 to end residues) cytoplasmic domain expressed in insect system using poly (Glu-Ala-Tyr) peptide as substrate after 1.5 hrs by ELISA.
Tyrosine-protein kinase receptor UFO (Homo sapiens), sequence (P30530 whole entry, the tested form may be a part): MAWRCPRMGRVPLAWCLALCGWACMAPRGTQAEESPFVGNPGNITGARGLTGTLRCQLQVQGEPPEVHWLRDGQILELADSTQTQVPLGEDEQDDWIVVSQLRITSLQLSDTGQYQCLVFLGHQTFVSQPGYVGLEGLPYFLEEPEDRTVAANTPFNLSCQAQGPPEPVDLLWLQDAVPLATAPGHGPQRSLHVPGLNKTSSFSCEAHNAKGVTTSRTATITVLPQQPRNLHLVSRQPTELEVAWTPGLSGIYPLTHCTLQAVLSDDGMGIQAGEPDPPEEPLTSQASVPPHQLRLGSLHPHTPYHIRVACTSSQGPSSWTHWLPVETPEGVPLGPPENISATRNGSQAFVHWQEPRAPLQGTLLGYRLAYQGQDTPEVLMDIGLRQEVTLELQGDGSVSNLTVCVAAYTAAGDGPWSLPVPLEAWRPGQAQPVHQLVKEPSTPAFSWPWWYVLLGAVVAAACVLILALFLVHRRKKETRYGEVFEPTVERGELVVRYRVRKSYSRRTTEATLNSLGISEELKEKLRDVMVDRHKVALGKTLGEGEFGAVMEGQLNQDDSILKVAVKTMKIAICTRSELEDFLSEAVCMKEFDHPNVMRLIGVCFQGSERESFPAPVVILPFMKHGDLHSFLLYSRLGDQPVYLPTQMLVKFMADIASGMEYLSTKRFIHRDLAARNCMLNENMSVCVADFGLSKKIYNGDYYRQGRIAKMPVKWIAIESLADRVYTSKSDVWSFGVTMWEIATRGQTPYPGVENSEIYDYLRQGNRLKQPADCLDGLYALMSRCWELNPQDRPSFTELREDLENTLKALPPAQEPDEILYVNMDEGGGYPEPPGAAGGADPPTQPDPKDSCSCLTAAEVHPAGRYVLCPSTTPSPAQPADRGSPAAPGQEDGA
For assay [2], the target named is T1, Tyrosine-protein kinase receptor TYRO3 (Homo sapiens) (UniProt Q06418).
T1 sequence (whole entry): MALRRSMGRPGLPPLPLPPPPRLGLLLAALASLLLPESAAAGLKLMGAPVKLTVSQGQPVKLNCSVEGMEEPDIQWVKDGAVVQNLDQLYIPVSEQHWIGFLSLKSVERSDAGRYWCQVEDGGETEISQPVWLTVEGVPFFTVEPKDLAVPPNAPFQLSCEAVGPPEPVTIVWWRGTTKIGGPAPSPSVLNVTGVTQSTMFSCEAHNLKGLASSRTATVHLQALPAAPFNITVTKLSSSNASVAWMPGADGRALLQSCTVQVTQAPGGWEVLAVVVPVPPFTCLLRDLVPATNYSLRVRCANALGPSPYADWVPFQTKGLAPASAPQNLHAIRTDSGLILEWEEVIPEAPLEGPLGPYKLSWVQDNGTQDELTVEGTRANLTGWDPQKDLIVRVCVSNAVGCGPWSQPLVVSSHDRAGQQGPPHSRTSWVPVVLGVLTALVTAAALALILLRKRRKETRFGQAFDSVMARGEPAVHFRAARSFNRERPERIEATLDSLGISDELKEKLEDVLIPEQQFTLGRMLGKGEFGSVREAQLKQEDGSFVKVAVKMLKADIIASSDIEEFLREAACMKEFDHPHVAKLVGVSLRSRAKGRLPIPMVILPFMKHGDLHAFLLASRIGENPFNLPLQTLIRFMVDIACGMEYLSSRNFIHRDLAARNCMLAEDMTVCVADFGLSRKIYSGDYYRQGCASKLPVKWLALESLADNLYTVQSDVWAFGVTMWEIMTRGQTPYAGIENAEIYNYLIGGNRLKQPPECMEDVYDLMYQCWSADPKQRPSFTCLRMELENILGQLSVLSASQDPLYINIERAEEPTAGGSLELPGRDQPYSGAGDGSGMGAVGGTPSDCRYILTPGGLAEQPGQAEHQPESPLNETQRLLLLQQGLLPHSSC
The experiment in a line: Binding affinity to wild-type human partial length TYRO3 (S497 to T814 residues) expressed in bacterial expression system assessed as fraction of unbound kinase to substrate at 1 uM after 1 hr by KinomeScan assay.

Assay [3] addresses T2, Aurora kinase A (Homo sapiens) (UniProt O14965).
T2 sequence (whole entry): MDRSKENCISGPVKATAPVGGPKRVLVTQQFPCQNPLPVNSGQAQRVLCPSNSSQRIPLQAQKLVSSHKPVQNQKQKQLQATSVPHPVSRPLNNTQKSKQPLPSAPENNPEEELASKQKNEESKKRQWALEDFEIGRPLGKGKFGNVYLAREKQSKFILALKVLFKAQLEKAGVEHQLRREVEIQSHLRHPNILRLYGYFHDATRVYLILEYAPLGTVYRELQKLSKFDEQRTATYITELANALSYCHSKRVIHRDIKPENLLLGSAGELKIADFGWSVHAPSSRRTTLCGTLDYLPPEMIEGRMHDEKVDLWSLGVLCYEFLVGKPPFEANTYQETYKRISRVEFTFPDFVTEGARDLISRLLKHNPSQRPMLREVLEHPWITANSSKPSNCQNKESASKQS
Description: Binding affinity to wild-type human partial length AURKA (E122 to K401 residues) expressed in mammalian expression system assessed as fraction of unbound kinase to substrate at 1 uM after 1 hr by KinomeScan assay.

For assay [4], the target named is T1, Tyrosine-protein kinase receptor TYRO3 (Homo sapiens). The experiment in a line: Inhibition of recombinant GST-tagged human Tyro3 (451 to 890 residues) cytoplasmic domain expressed in Baculovirus expression system using poly (Glu-Ala-Tyr) peptide as substrate after 1.5 hrs by ELISA.
Assay [5] has as its target Hepatocyte growth factor receptor (Homo sapiens) (UniProt P08581). The experiment in a line: Binding affinity to human MET (D1010 to S1367 residues) expressed in bacterial expression system assessed as fraction of unbound kinase to substrate at 1 uM after 1 hr by KinomeScan assay.
For assay [6], the target named is Cyclin-dependent kinase 2 (Homo sapiens) (UniProt P24941). Description: Binding affinity to wild-type human full length CDK2 (M1 to L298 residues) expressed in bacterial expression system assessed as fraction of unbound kinase to substrate at 1 uM after 1 hr by KinomeScan assay.
In assay [7] the target is Glycogen synthase kinase-3 beta (Homo sapiens) (UniProt P49841). Description: Binding affinity to full length wild type human GSK3beta (M1 to T433 residues) expressed in mammalian expression system assessed as fraction of unbound kinase to substrate at 1 uM after 1 hr by KinomeScan assay.
Glycogen synthase kinase-3 beta (Homo sapiens), sequence (P49841 whole entry, looked up, the tested form may be a part): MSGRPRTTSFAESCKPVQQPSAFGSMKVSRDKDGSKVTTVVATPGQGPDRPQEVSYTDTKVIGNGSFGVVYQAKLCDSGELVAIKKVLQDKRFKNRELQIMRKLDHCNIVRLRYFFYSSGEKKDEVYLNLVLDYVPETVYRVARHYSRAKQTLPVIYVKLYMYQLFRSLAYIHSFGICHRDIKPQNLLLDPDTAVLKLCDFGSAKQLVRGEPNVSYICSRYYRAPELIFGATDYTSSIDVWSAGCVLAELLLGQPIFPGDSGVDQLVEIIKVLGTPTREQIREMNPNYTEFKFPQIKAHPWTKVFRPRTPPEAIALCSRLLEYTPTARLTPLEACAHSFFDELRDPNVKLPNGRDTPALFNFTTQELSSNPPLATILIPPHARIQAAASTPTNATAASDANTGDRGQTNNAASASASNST
Assay [8] deals with T3, Tyrosine-protein kinase Mer (Homo sapiens) (UniProt Q12866).
T3 sequence (whole entry): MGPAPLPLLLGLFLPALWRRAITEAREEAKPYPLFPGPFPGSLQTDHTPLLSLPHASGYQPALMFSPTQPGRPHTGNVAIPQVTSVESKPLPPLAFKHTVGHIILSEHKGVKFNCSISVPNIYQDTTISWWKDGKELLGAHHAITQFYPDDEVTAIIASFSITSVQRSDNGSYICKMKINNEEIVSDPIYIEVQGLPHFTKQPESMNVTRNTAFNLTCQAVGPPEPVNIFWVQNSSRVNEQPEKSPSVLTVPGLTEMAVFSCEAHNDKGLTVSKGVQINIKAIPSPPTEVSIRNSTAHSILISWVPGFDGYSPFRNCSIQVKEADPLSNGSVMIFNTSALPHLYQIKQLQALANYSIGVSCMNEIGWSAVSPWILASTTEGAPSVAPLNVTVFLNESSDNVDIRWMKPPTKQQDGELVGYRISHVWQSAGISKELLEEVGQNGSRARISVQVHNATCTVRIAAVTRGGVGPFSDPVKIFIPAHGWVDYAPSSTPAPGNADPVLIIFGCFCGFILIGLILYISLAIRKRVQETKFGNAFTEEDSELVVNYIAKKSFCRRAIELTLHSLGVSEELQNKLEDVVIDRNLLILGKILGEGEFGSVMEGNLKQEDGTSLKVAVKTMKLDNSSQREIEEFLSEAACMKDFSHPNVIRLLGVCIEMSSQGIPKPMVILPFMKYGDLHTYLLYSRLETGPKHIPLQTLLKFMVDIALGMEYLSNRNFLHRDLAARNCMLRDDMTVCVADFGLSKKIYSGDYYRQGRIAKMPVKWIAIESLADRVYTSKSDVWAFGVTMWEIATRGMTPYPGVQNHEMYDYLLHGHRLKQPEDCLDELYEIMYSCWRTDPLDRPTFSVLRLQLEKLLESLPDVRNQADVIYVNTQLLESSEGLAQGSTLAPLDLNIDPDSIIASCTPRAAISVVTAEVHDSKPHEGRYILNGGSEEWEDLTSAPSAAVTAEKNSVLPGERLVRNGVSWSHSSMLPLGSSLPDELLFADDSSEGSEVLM
Description: Binding affinity to wild-type partial length human MER (R557 to L884 residues) expressed in bacterial expression system assessed as fraction of unbound kinase to substrate at 0.1 uM after 1 hr by KinomeScan assay.

Active and inactive are the calls of the source. No cut-off for these calls is given here.

Hepatocyte growth factor receptor (Homo sapiens), sequence (P08581 whole entry, the tested form may be a part): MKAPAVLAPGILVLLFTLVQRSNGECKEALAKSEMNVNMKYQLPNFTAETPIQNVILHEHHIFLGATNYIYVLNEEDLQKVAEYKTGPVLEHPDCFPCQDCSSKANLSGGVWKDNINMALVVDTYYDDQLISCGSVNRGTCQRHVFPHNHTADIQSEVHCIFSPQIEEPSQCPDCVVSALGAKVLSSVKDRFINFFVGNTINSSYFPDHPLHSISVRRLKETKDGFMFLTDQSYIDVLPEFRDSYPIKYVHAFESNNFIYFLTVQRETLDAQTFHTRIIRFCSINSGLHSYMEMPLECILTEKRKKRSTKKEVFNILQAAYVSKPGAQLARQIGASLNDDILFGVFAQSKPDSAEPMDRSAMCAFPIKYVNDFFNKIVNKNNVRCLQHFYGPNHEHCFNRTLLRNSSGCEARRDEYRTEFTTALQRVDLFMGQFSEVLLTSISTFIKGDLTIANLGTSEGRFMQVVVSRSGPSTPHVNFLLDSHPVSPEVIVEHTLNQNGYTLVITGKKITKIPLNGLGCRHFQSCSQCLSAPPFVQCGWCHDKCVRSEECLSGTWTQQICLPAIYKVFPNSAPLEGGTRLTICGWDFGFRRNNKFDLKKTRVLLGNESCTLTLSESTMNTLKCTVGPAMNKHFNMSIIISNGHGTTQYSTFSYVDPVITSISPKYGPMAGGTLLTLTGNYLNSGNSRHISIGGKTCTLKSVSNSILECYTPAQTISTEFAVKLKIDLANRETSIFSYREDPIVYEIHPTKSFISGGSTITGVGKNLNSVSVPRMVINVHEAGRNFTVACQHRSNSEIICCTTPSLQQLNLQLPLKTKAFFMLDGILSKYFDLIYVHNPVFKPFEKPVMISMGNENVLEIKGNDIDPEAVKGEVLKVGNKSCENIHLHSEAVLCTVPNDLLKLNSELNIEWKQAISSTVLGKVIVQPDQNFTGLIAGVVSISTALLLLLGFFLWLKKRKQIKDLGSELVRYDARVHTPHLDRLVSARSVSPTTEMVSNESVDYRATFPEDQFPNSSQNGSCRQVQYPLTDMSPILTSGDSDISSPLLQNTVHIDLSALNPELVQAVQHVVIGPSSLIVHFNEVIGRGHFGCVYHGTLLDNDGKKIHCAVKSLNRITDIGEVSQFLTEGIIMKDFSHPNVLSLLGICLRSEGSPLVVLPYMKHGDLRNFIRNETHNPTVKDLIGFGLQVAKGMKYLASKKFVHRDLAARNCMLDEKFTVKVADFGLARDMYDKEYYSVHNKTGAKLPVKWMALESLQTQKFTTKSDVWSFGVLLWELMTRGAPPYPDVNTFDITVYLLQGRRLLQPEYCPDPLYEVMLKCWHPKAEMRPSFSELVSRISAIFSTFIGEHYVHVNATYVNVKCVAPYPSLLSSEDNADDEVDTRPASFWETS

As to `Cc1cnc2[nH]cnc2c1Oc1ccc(NC(=O)c2cccn(-c3ccc(F)cc3)c2=O)cc1F`, the inhibition result in assay [1] and in assay [4] was “inactive” throughout. For the same molecule, the Activity in assay [2] is 0%; in assay [3], 6%; in assay [5], 94.5%; in assay [6], 0%; in assay [7], 5%; in assay [8], 17%.
For the molecule `O=C(Nc1ccc(Oc2ccnc3[nH]cnc23)c(F)c1)c1cccn(-c2ccc(F)cc2)c1=O`, the inhibition entry in assay [1] and in assay [4] was “Active” in each case. For the same molecule, the Activity in assay [2] turned out to be 81%; in assay [3], 2%; in assay [5] it was 96%; in assay [6], 0%; in assay [7] it was 5%; in assay [8] it was 87%.
Turning to `CC(C)c1nc2c(Oc3ccc(NC(=O)c4cccn(-c5ccc(F)cc5)c4=O)cc3F)ccnc2[nH]1`, the inhibition result in assay [1] and in assay [4] was “inactive” each time. The Activity in assay [2] turned out to be 39%; in assay [3], 2%; in assay [5], 96.7%; in assay [6], 95.5%; in assay [7], 0%; in assay [8] it was 92.3%.
For the molecule `O=C(Nc1ccc(Oc2c(Br)cnc3[nH]cnc23)c(F)c1)c1cccn(-c2ccc(F)cc2)c1=O`, the inhibition result in assay [1] and in assay [4] was “inactive” throughout. Further, the Activity in assay [2] was determined as 11%; in assay [3] it was 9%; in assay [5], 82%; in assay [6] it was 0%; in assay [7], 1%; in assay [8] it was 4%.
